One experiment relates to LnCaP cells. The experiment in a line: Tumor cell viability, ATPlite. The following applies: Homo sapiens, 72 h, read-out: EC50, decrease in cell viability. In kind it is cell-based. How it is done:
Akt1 levels in the cell lysates were measured using kits from R&D Systems used according to the manufacturer's recommendations. Cell lysates were assayed at a 1:24 dilution for the Akt1 ELISA. The Akt1 concentrations in the cell lysates were extrapolated from the standard curve and corrected for lysate protein concentration. Akt1 levels were determined using a micro-titer plate reader (Model #Synergy HT; BioTek Inc., Winooski, Vt.). LnCaP cells were cultured in culture medium and passaged after lifting using 0.25% trypsin/EDTA. LnCaP cells were seeded into a 96 well tissue culture plate at 1.3×10^4 cells per well in a volume of 100 uL of culture medium. […] Caspase 3/7 activity was measured using a Homogeneous Caspase 3/7 Assay Kit used according to the manufacturer's recommendations. In detail, an equal volume of Caspase 3/7 Assay Kit reagent was added to the wells and fluorescence readings (Ex/Em 485/528) were taken after 3, 6, and 23 h at ambient temperature using a micro-titer plate reader. […] Fluorescence intensities of the dilutions were measured to obtain a standard curve. […] Cell viability was measured with the ATPlite Kit used according to the manufacturer's recommendation. […] Cultures were mixed at 1,000 rpm for 2 min in the dark and luminescence quantification was accomplished using a micro-titer plate reader (POLARstar Omega micro-titer plate reader; BMG Labtech).
For orientation: Cellular ATP, detected with luciferase, serves as a proxy for viable cell number.

The subject of experiment [1] is Hsp70 in MBA-MD-231 cells. The experiment in a line: Hsp70 induction, ELISA. In kind it is cell-based. To be noted: MBA-MD-231, 48 hours. On the procedure: Experiments were performed using U251 MG and MBA-MD-231 cells to also measure induction of Hsp 70 in response to treatment with SBI-0640725. […] For Hsp70 induction measurements, cells were treated with increasing concentrations of SBI-0640725 for 48 hours, and Hsp70 levels were measured in cell lysates using ELISA.
On the technique in general: In an ELISA, binding on a coated surface is turned into a signal by an enzyme label.

In another experiment the test system is U251MG cells. The experiment in a line: Mitochondrial stress response, oxygen consumption rate (OCR). The format is cell-based, human. The following applies: FCCP as inducer of stress. How it is done:
In further experiments, the effect of SBI-0640725 on mitochondrial stress response in U251MG cells was determined by measuring the mitochondrial oxygen consumption rate (OCR). The OCR was measured in real time, both before, and after treating U251 MG cells with increasing concentrations of SBI-0640725. The time of compound addition is indicated in FIG. 15A by the vertical line labeled D. Mitochondrial bioenergetics stress was determined by treating the cells sequentially with 0.125 mg/ml oligomycin (OA; vertical line O), […] carbonyl cyanide-4-(trifluoromethoxy)phenylhydrazone (FCCP; vertical line F) and […] rotenone (vertical line R) while continuing OCR measurement. Oligomycin (OA) generates mitochondrial stress by inhibiting ATP synthase and FCCP uncouples mitochondrial oxidative phosphorylation. The OCR data shown in FIG. 15A is presented in FIG. 15B after normalization using cell protein concentration, and subtracting extra-mitochondrial respiration, as determined by the respiration observed upon addition of rotenone. These experiments tested whether SBI-0640725 could inhibit the ability of mitochondria to compensate for these stressors. […] FCCP dissipates the electrochemical gradient that drives ATP synthesis. Thus, in order to maintain the membrane potential, mitochondria needs to increase the flow of electrons, thereby reflecting an increase in the OCR.

Another experiment has as its system U87MG. The experiment in a line: Efficacy in GBM cells, ADP-GLO. The following applies: Homo sapiens, U-87 MG. The format is cell-based. A general note: ADP-Glo first removes unused ATP, then detects ADP through luciferase.
The test system of another experiment is U251MG. The experiment in a line: Cell viability / efficacy in GBM cells. In kind it is cell-based, human. On the procedure:
(§1) The effect of SBI-0640725 on cell viability was determined by measuring cellular dehydrogenase activity (U251MG and MBA-MD-231 cells) or by measuring ADP levels (HepG2) after treating cells for 72 hours with increasing concentrations of SBI-0640725. To measure dehydrogenase activity, CCK-8 kit reagent (Dojindo) was added to the wells and incubated for 2 hours, after which absorbance was measured at 450 nm using a Synergy HT micro-titer plate reader (Biotek). To measure ADP levels, ADP-GLO reagent (Life Technologies) was added to the wells, and luminescence was measured after a 30 minute incubation using a POLARstar Omega micro-titer plate reader (BMG).
(§2) The table below summarizes efficacy of SBI-0640725 in various cancer cell lines, including U251MG, MDA-MB-231, and HepG2, using ADP-GLO assay described above. As used herein “efficacy” (EC50) is the concentration of a compound that produces half-maximal response in a cellular assay.

The next experiment concerns MDA-MB-231. The experiment in a line: Cell viability / efficacy in breast cancer cells. In kind it is cell-based. On the procedure: as §1, §2
For experiment [2], the system named is Caspase 3/7 activity in U251MG cells. The experiment in a line: Cellular Caspase-3/7 luminescence assay. In kind it is cell-based, human. The following applies: 72 hours. How it is done:
Further, the effect of SBI-0640725 on cellular caspase levels was also quantitated in U251MG, MBA-MD-231 and HepG2 cells. Each cell type was treated with increasing concentrations of SBI-0640725 for 72 hours. Quantification of total cellular Caspase-3 and 7 activity was accomplished using a Caspase-3/7 luminescence assay kit (Promega) according to the manufacturer's recommendations, and analyzed with a POLARstar Omega micro-titer plate reader (BMG). […] Caspase activity is a marker for apoptotic cell death.

The test system of another experiment is Akt1 in U251MG cells. Put plainly: Hsp90 client protein stability, Akt1 ELISA. In kind it is cell-based, human. To be noted: 48 hours, increasing concentrations. How it is done: (§3) In further experiments, the effect of SBI-0640725 on the stability of Hsp90 client proteins was analyzed. […] Akt1 protein levels were measured in cell lysates using ELISA.
Another experiment deals with Akt1 in MBA-MD-231 cells. The experiment in a line: Hsp90 client protein stability, Akt1 ELISA. To be noted: MBA-MD-231, 48 hours, increasing concentrations. The format is cell-based. On the procedure: as §3

One may read the EC50 as the concentration giving half of the maximal effect. On to `COc1c(C)cnc(CN(CCc2ccccc2)c2cc(Cl)nc(N)n2)c1C` [SBI-0639353, 6-Chloro-N4-((4-methoxy-3,5-dimethylpyridin-2-yl)methyl)-N4-phenethylpyrimidine-2,4-diamine], for which the EC50 with LnCaP cells was found to be 3.8 µM.
For the molecule `COc1c(C)cnc(CN(CCc2ccc(F)cc2)c2cc(Cl)nc(N)n2)c1C` [SBI-0640725], in experiment [1], the “induction of Hsp70” value was “caused induction of Hsp70”. The “mitochondrial stress response (OCR)” value in the experiment with U251MG cells is given as “significantly inhibit the ability of mitochondria to compensate for stress”. Also, the EC50 is 6.7 µM in the experiment on U87MG; 0.88 µM with U251MG (Homo sapiens, U-251, GBM, ADP-GLO); 2.4 µM in the experiment on MDA-MB-231 (Homo sapiens, Breast Cancer, MDA-MB-231, ADP-GLO). Further, the cell viability result in the experiment on U251MG (72 hours, dehydrogenase activity (CCK-8)) was “reduction in cell viability”; with MDA-MB-231 (MBA-MD-231, 72 hours, dehydrogenase activity (CCK-8)), “reduction in cell viability”. In addition, in [2], the “Caspase 3/7 activity” value is recorded as “increase in Caspase 3/7 activity”. Further, the “levels of the client protein Akt1” value with Akt1 in U251MG cells and in the experiment on Akt1 in MBA-MD-231 cells was “progressive decrease in the levels of the client protein Akt1” throughout.
